Series [1] deals with normal rats (Wistar-Kyoto). Description: Effect on blood pressure in normal rats (also heart rate, body weight). The class given is in vivo. How it is done: Male Wistar-Kyoto rats eight weeks old (weighing about 190 g) were used in groups of 5 animals. Platonin was orally administered at a dose of 1 µg/kg three times a week for 8 weeks. A physiological saline alone was administered to a control group in the same manner as above. During the administration period, blood pressure, heart rate and body weight were measured at timed intervals. Blood pressure, systolic, was bloodlessly measured in the caudal artery using a rat blood pressure manometer (made by Narco Biosystems Co.), and heart rate using a polygraph (made by Nippon Kohden Kabushiki Kaisha).

The nature of another series: Acute toxicity. The note with it: rat, in vivo, male Wistar rats, suspended in 5 % gum arabic, observed 7 days, method of Van der Warden. How it is done: Eight male Wistar rats (weighing about 150 g) per group were used. Platonin suspended in 5 % gum arabic was administered intraperitonealy, or orally using a gastric tube. […] The LD50 value was calculated by the method of Van der Warden.

Series [2] concerns spontaneously hypertensive rats. Description: Effect on spontaneously hypertensive rats (blood pressure, heart rate, body weight). The format is in vivo. The conditions noted are these: for antihypertensive effect: separate experiment (not illustrated). How it is done:
Male spontaneously hypertensive rats (hereinafter referred to as SHR, weighing about 190 g) eight weeks old were used in groups of 5 animals. Platonin was orally adminstered at a dose of 1 µg/kg three times a week for 13 weeks. A physiological saline alone was adminstered to a control group in the same manner as above. During the administration period, blood pressure, heart rate and body weight were measured at timed intervals.
Blood pressure, systolic, was bloodlessly measured in the caudal artery using a rat blood pressure manometer (made by Narco Biosystems Co.), and heart rate using a polygraph (made by Nippon Kohden Kabushiki Kaisha).

The mark [3] stands for this setting: normal rats, in comparison with the control group.

Structures are written as SMILES. Like-named read-outs stand apart in the source and are kept apart here.

In the case of `CCCCCCCN1C(C)=CS\C1=C/C=C(/C=C/c1scc(C)[n+]1CCCCCCC)c1scc(C)[n+]1CCCCCCC`, the “Effect on blood pressure in normal rats” value in series [1] (male Wistar-Kyoto rats, oral, 1 µg/kg three times a week for 8 weeks, Fig. 3) was “no influence on blood pressure”; in series [1] (normal rats, dose range of 1 to 100 µg/kg), “no change in blood pressure”. The body weight result in series [1] (setting [3]) was “no significant changes”. In addition, the heart rate entry in series [1] (setting [3]) is recorded as “no significant changes”. The LD50 at 168 h in “Acute toxicity” (ip, intraperitoneal, read-out: intraperitoneal LD50 value) stood at 54 mg/kg; in “Acute toxicity” (oral by gastric tube, read-out: oral LD50 value), 1500 mg/kg. Besides, the acute hypotensive effect entry in series [2] (SHR, also at a higher dose, time for the antihypertensive effect to be revealed was the same) is “any acute hypotensive effect was not found”. Also, the Body weight change result is listed as “no influence on body weight gain” in series [2] (SHR, oral, 1 µg/kg three times a week, Fig. 2) and “no effect on body weight” in series [2] (SHR, oral, 1 to 100 ug/kg three times a week (not illustrated)). Further, the “Effect on heart rate” value in series [2] (SHR, oral, 1 µg/kg three times a week, any time point during administration, compared with control group) is on record as “any significant change in heart rate was not observed”. Also, the antihypertensive effect entry in series [2] (SHR, after about 4 weeks of administration) is recorded as “significant decrease in blood pressure”; in series [2] (SHR, till the 3rd week of administration), “no effect at all”. Also, the “Effect on blood pressure” value in series [2] (male SHR, oral, 1 ug/kg three times a week for 13 weeks, systolic, caudal artery, each measurement time point after 5 weeks, Fig. 1) is reported as “remarkable blood pressure fall”.

What is called LD50 is the dose at which mortality reaches 50%.
